The values below come from ChEMBL document CHEMBL5131495, “Discovery of unique thiazolidinone-conjugated coumarins as novel broad spectrum antibacterial agents” (Eur J Med Chem, 2022).

Type in all cases: functional
Experiment [1] relates to Staphylococcus aureus. The experiment is described as follows: Antibacterial activity against Staphylococcus aureus assessed as inhibition of bacterial growth.
For experiment [2], the system named is Staphylococcus aureus. The experiment is described as follows: Antibacterial activity against methicillin resistant Staphylococcus aureus N315 assessed as inhibition of bacterial growth.
For experiment [3], the system named is Enterococcus faecalis. The experiment is described as follows: Antibacterial activity against Enterococcus faecalis assessed as inhibition of bacterial growth.
For experiment [4], the system named is Staphylococcus aureus. The experiment is described as follows: Antibacterial activity against Staphylococcus aureus ATCC 25923 assessed as inhibition of bacterial growth.
The test system of experiment [5] is Staphylococcus aureus. The experiment is described as follows: Antibacterial activity against Staphylococcus aureus ATCC 29213 assessed as inhibition of bacterial growth.
Experiment [6] concerns Klebsiella pneumoniae. The experiment is described as follows: Antibacterial activity against Klebsiella pneumoniae assessed as inhibition of bacterial growth.
Experiment [7] deals with Escherichia coli. The experiment is described as follows: Antibacterial activity against Escherichia coli assessed as inhibition of bacterial growth.
Experiment [8] concerns Escherichia coli. The experiment is described as follows: Antibacterial activity against Escherichia coli ATCC 25922 assessed as inhibition of bacterial growth.
Experiment [9] relates to Pseudomonas aeruginosa. The experiment is described as follows: Antibacterial activity against Pseudomonas aeruginosa assessed as inhibition of bacterial growth.
The subject of experiment [10] is Pseudomonas aeruginosa. The experiment is described as follows: Antibacterial activity against Pseudomonas aeruginosa ATCC 27853 assessed as inhibition of bacterial growth.
The test system of experiment [11] is Acinetobacter baumannii. The experiment is described as follows: Antibacterial activity against Acinetobacter baumannii assessed as inhibition of bacterial growth.

≈ marks a conversion by molar mass, not a printed value.

One may read the MIC as the least concentration at which growth counts as inhibited.

On to `Cc1ccc(/C=C2\S/C(=N/c3ccc4c(C)cc(=O)oc4c3)N(CCO)C2=O)cc1`, for which the MIC in [1] was determined as 64 µg/mL (≈ 152 µM); in experiment [2], 128 µg/mL (≈ 304 µM); in experiment [3] it was 256 µg/mL (≈ 609 µM); in experiment [4], 256 µg/mL (≈ 609 µM); in experiment [5] it was 128 µg/mL (≈ 304 µM); in experiment [6], 256 µg/mL (≈ 609 µM). In addition, the MIC in [7] stood at 128 µg/mL (≈ 304 µM); in [8], 256 µg/mL (≈ 609 µM); in experiment [9] it was 128 µg/mL (≈ 304 µM); in [10] it was 32 µg/mL (≈ 76.1 µM); in experiment [11], 8 µg/mL (≈ 19 µM).
Take `Cc1ccc(/C=C2\S/C(=N/c3ccc4c(C)cc(=O)oc4c3)N(CCO)C2=O)o1`: the MIC amounted to 128 µg/mL (≈ 312 µM) in experiment [1]; 8 µg/mL (≈ 19.5 µM) in experiment [2]; 64 µg/mL (≈ 156 µM) in experiment [3]; 256 µg/mL (≈ 624 µM) in experiment [4]; 128 µg/mL (≈ 312 µM) in [5]; 32 µg/mL (≈ 78 µM) in [6]. Also, the MIC in [7] was determined as 16 µg/mL (≈ 39 µM); in experiment [8], 64 µg/mL (≈ 156 µM); in experiment [9], 16 µg/mL (≈ 39 µM); in experiment [10], 16 µg/mL (≈ 39 µM); in experiment [11], 8 µg/mL (≈ 19.5 µM).
Take `Cc1cc(=O)oc2cc(/N=C3/S/C(=C\c4c[nH]c5cc(Cl)ccc45)C(=O)N3CCO)ccc12`: the MIC in experiment [1] turned out to be 16 µg/mL (≈ 33.3 µM); in [2] it was 8 µg/mL (≈ 16.7 µM); in experiment [3], 4 µg/mL (≈ 8.33 µM); in experiment [4], 8 µg/mL (≈ 16.7 µM); in [5] it was 64 µg/mL (≈ 133 µM); in experiment [6], 8 µg/mL (≈ 16.7 µM). Further, the MIC in experiment [7] worked out at 8 µg/mL (≈ 16.7 µM); in experiment [8], 16 µg/mL (≈ 33.3 µM); in [9], 128 µg/mL (≈ 267 µM); in experiment [10], 64 µg/mL (≈ 133 µM); in experiment [11], 4 µg/mL (≈ 8.33 µM).
Turning to `Cc1cc(=O)oc2cc(/N=C3/S/C(=C\c4ccccc4F)C(=O)N3CCO)ccc12`, the MIC was determined as 1 µg/mL (≈ 2.36 µM) in experiment [1]; 4 µg/mL (≈ 9.42 µM) in experiment [2]; 0.25 µg/mL (≈ 0.589 µM) in experiment [3]; 32 µg/mL (≈ 75.4 µM) in experiment [4]; 64 µg/mL (≈ 151 µM) in [5]; 32 µg/mL (≈ 75.4 µM) in experiment [6]. The MIC in experiment [7] is 32 µg/mL (≈ 75.4 µM); in experiment [8], 16 µg/mL (≈ 37.7 µM); in [9], 4 µg/mL (≈ 9.42 µM); in experiment [10], 1 µg/mL (≈ 2.36 µM); in [11] it was 16 µg/mL (≈ 37.7 µM).
With `Cc1cc(=O)oc2cc(/N=C3/S/C(=C\c4ccc(F)cc4)C(=O)N3CCO)ccc12`, the MIC in [1] amounted to 64 µg/mL (≈ 151 µM); in experiment [2] it was 64 µg/mL (≈ 151 µM); in experiment [3], 32 µg/mL (≈ 75.4 µM); in experiment [4], 128 µg/mL (≈ 302 µM); in experiment [5], 16 µg/mL (≈ 37.7 µM); in [6], 256 µg/mL (≈ 603 µM). The MIC in experiment [7] stood at 128 µg/mL (≈ 302 µM); in experiment [8] it was 128 µg/mL (≈ 302 µM); in [9] it was 32 µg/mL (≈ 75.4 µM); in experiment [10] it was 64 µg/mL (≈ 151 µM); in [11] it was 4 µg/mL (≈ 9.42 µM).
`Cc1cc(=O)oc2cc(/N=C3/S/C(=C\c4ccc(Cl)cc4Cl)C(=O)N3CCO)ccc12`: the MIC in [1] turned out to be 256 µg/mL (≈ 539 µM); in experiment [2] it was 32 µg/mL (≈ 67.3 µM); in experiment [3] it was 128 µg/mL (≈ 269 µM); in experiment [4], 128 µg/mL (≈ 269 µM); in experiment [5] it was 128 µg/mL (≈ 269 µM); in experiment [6], 64 µg/mL (≈ 135 µM). For the same compound, the MIC in [7] was determined as 256 µg/mL (≈ 539 µM); in experiment [8] it was 256 µg/mL (≈ 539 µM); in [9], 64 µg/mL (≈ 135 µM); in [10], 128 µg/mL (≈ 269 µM); in experiment [11], 4 µg/mL (≈ 8.41 µM).
On to `Cc1ccc(/C=C2\S/C(=N/c3ccc4c(C)cc(=O)oc4c3)N(CCO)C2=O)c(C)c1`, for which the MIC turned out to be 64 µg/mL (≈ 147 µM) in experiment [1]; 128 µg/mL (≈ 295 µM) in experiment [2]; 128 µg/mL (≈ 295 µM) in [3]; 64 µg/mL (≈ 147 µM) in [4]; 64 µg/mL (≈ 147 µM) in [5]; 128 µg/mL (≈ 295 µM) in experiment [6]. Also, the minimal inhibitory concentration (MIC) in experiment [7] amounted to 64 µg/mL (≈ 147 µM); in experiment [8], 128 µg/mL (≈ 295 µM); in experiment [9] it was 16 µg/mL (≈ 36.8 µM); in [10], 256 µg/mL (≈ 589 µM); in experiment [11], 1 µg/mL (≈ 2.3 µM).
In the case of `Cc1cc(=O)oc2cc(/N=C3/S/C(=C\c4ccc[nH]4)C(=O)N3CCO)ccc12`, the MIC is 64 µg/mL (≈ 162 µM) in [1]; 64 µg/mL (≈ 162 µM) in experiment [2]; 128 µg/mL (≈ 324 µM) in [3]; 128 µg/mL (≈ 324 µM) in experiment [4]; 64 µg/mL (≈ 162 µM) in experiment [5]; 64 µg/mL (≈ 162 µM) in experiment [6]. The MIC in experiment [7] was 2 µg/mL (≈ 5.06 µM); in [8], 128 µg/mL (≈ 324 µM); in experiment [9], 256 µg/mL (≈ 647 µM); in experiment [10], 32 µg/mL (≈ 80.9 µM); in experiment [11] it was 4 µg/mL (≈ 10.1 µM).
